Measured values taken from US10683486B2, “Methods for producing hepatocytes” (BioLamina AB, priority 2015, dated 2020).

Key:
MAN11 cells = assay: Immunostaining of ALB and CYP3A in MAN11 derived cells (Example 5); assay type: cell-based, human; settings: MAN11, Day 18, Cameron protocol
Description: MAN11 cells, another GMP grade cell line, were plated on three different substrates. The first substrate was Matrigel® (MG), and served as a control. The second substrate was coated with 5 micrograms per square centimeter (μg/cm^2) of laminin-521 (LN-521). […] The cells were then differentiated according to the Cameron protocol.
FIG. 16 is a set of 15 photomicrographs at 10× magnification, organized into three columns and five rows. […] Row A is a set of phase contrast images of morphology. The scale bars are 200 μm. Row B is a set of photomicrographs showing the immunofluorescent staining of albumin (ALB) on the three different matrices. Row C is a set of photomicrographs showing the immunofluorescent staining of cytochrome P450 3A (CYP3A). Row D is a set of photomicrographs showing the immunofluorescent staining of multidrug resistance protein 1 (MRP1). Row E is a set of photomicrographs showing immunoglobulin G control staining for sheep, mouse, and rabbit antisera. All of these photos were taken on Day 18.

[1] = tested on: H9 human embryonic stem cells (hESCs); assay: Immunofluorescent staining of OCT4 and Nanog in pluripotent stem cells on the substrates prior to differentiation; assay type: cell-based; settings: 24 hours post-replating
Description: H9 human embryonic stem cells (hESCs) were cultured and maintained in a humidified 37° C., 5% CO2 incubator. Three different substrates were then prepared in 96-well plates. The first substrate was pre-coated with Matrigel® (MG), and served as a control. The second substrate was coated with 5 micrograms per square centimeter (μg/cm^2) of laminin-521 (LN-521).
[…] Cell cultures were fixed in 100% ice-cold methanol at −20 degrees Celsius for 30 minutes, and adjacent cells were pre-washed twice with PBS buffer at room temperature. Cell monolayers were blocked with 0.1% PBS-Tween solution containing 10% bovine serum albumin for 1 hour. Subsequently, the monolayers were incubated with primary antibodies diluted in PBS-0.1% Tween/1% BSA at 4 degrees Celsius overnight. After 24 hours, the primary antibodies were removed and the fixed monolayers were washed three times with PBS-0.1% Tween/1% BSA. Cells were incubated with appropriate secondary antibodies diluted in PBS-0.1% Tween/1% BSA for one hour at room temperature and washed with three times with PBS. Cultures were then mounted with PermaFluor™ Aqueous Mounting Medium and counterstained with NucBlue Hoescht 33342. […] The images were processed through Zeiss Axiovision SE 64 Rel 4.8 and analyzed using Zeiss Axiovision version 4.9.1.0. […]

[2] = tested on: H9 hESCs differentiating to hepatocyte like cells; assay: Quantitative PCR gene expression during differentiation; assay type: cell-based, human; settings: days 0, 3, 9, 18; normalized to GAPDH
Description: Total RNA was isolated from cells using Trizol reagent. RNA quantification and quality was assessed using a Nanodrop system. The Life Technologies Superscript III reverse transcription kit was employed to prepare the cDNA. Quantitative PCR was performed with Taqman Fast Advance Mastermix and the appropriate primer pair and analysed using a Roche LightCycler 480 Real-Time PCR System. Gene expression was normalized to glyceraldehyde 3-phosphate dehydrogenase (GAPDH) and expressed as relative expression over the control sample (hESC on Day 0 of differentiation). Quantitative PCRs were performed in triplicate. Data analysis was performed using Roche LightCycler 480 Software (version 1.5). […] Cell extracts were collected during differentiation and mRNA assessed on days 0, 3, 9, and 18. […] It should be remembered that the “LN-511” label refers to a substrate containing a blend of laminin-521 and laminin-111 at a 1:3 weight ratio. FIG. 3 is a set of six bar graphs showing gene expression during differentiation on the three substrates (MG, LN-521, and LN-511) for six different genes whose name is above each graph. Relative gene expression was normalized to the housekeeping gene GAPDH. […] Endoderm associated gene FOXA2 peaked on all substrates on day 3 and then decreased thereafter. […] HNF4A was detected at day 3 on all substrates, but by day 9, significant differences in expression patterns emerged.

LN-521: substrate coated with 5 μg/cm^2 of laminin-521, the protein formed by joining α5, β2 and γ1 chains
ALB, percentage of positive cells and standard deviation (MAN11 cells): 89.2% ± 6.0 | CYP3A, percentage of positive cells and standard deviation (MAN11 cells): 90.8% ± 9.9 | Expression Levels Nanog [1]: 88.7% ± 5.4 | Expression Levels OCT4 [1]: 93.2% ± 5.9 | AFP gene expression over time [2]: peaking on day 9 then decreasing at day 18 | HNF4A gene expression over time [2]: highest on day 9, decreasing by day 18
